# Earlier results as cited in patent US20110288042A1, “STABLE HIGHLY PURE AZACITIDINE AND PREPARATION METHODS THEREFOR” (CHEMAGIS LTD., priority 2007, published 2011).
# Conditions: reported; cited from earlier work
structure (smiles),measurement,value
O=c1ncccn1[C@@H]1O[C@H](CO)[C@@H](O)[C@H]1O [zebularine],Stability in aqueous solution,stable in aqueous solution
